Results reported in patent US20250113825A1 (priority 2022, published 2025).

Key:
[1] = system: Pyricularia oryzae causing neck blast; assay: whole plant or invertebrate; format: in vivo; settings: for Observed efficacy of stobilurin fungicide (%): Table 5(a), Picoxystrobin 67.8 g a.i./ha, Trifloxystrobin 100 g a.i./ha alone
[2] = system: rice neck blast fungi; format: in vivo, Pyricularia oryzae; settings: Prothioconazole 120 gai/ha alone or with Azoxystrobin 280, Picoxystrobin 67, Trifloxystrobin 100 gai/ha

SMILES: CC(C)OC(=O)C(C(=O)OC(C)C)=C1SCCS1 [Isoprothiolane]
- Observed efficacy of isoprothiolane (%) ([1]; Table 5(b), Isoprothiolane 250 g a.i./ha alone): 48%

SMILES: CO/C=C(/C(=O)OC)c1ccccc1COc1cccc(C(F)(F)F)n1 [Picoxystrobin]
- Observed efficacy of stobilurin fungicide (%) [1]: 42%

SMILES: OC(Cc1ccccc1Cl)(Cn1nc[nH]c1=S)C1(Cl)CC1 (centres unmarked) [Prothioconazole, 2-[2-(1-chlorocyclopropyl)-3-(2-chlorophen-yl)-2-hydroxypropyl]-2,4-dihydro-[1,2,4-]-triazole-3-thione]
- inhibition at 120 g/ha ([1]; Pyricularia oryzae, read-out: Observed efficacy of demethylation inhibitor fungicide (%)): 49%
- % Control (rice neck blast) [2]: 41.49%

SMILES: CON=C(C(=O)OC)c1ccccc1CON=C(C)c1cccc(C(F)(F)F)c1 [Trifloxystrobin]
- Observed efficacy of stobilurin fungicide (%) [1]: 60%
